Entries after “also recorded” stand apart in the source; their conditions may differ.
Assays:
[1] = test system: LDHA; test: Wet lab validation of LDHA expression in HepG2 cells; type: cell-based; settings: HepG2, 50 uM or 100 uM CoQ10, 24 or 48 hours
Experimental: The cell model comprising the above-mentioned cells, wherein the cells were exposed to each condition described above, was additionally interrogated by exposing the cells to an environmental perturbation by treating with Coenzyme Q10. Specifically, the cells were treated with Coenzyme Q10 at 0, 50 μM, or 100 μM.
Cell samples as well as media samples for each cell line with each condition and each Coenzyme Q10 treatment were collected at various times following treatment, including after 24 hours and 48 hours of treatment.
Protein accession number P00338 is LDHA. Wet lab validation of proteomics data were performed for LDHA expression in HepG2 cells (see FIG. 20).

[2] = test system: GPAT1; test: Western blotting of GPAT1 in cardiomyocytes; type: cell-based, Human; settings: hyperglycemia conditioned cardiomyocytes, diabetic drug plus Coenzyme Q10 (T+R)
Experimental: (§1) Human cardiomyocytes were subject to conditions simulating an diabetic environment experienced by the disease-relevant cells in vivo. Specifically, the cells were exposed to hyperglycemic conditions and hyperlipidemia conditions. The hyperglycemic condition was induced by culturing cells in media containing 22 mM glucose. The hyperlipidemia condition was induced by culturing the cells in media containing 1 mM L-carnitine, 0.7 mM Oleic acid and 0.7 mM Linoleic acid.
(§2) The cell model comprising the above-mentioned cells, wherein the cells were exposed to each condition described above, was additionally “interrogated” by exposing the cells to an “environmental perturbation” by treating with a diabetic drug (T) which is known to cause cardiotoxicity, a rescue molecule (R) or both the diabetic drug and the rescue molecule (T+R). Specifically, the cells were treated with diabetic drug; or treated with rescue molecule Coenzyme Q10 at 0, 50 µM, or 100 µM; or treated with both of the diabetic drug and the rescue molecule Coenzyme Q10.
(§3) Protein expression levels of GPAT1 and TAZ for each condition and each treatment were tested with western blotting.

[3] = test system: TAZ; test: Western blotting of TAZ in cardiomyocytes; type: cell-based, Human; settings: hyperglycemia conditioned cardiomyocytes, diabetic drug plus Coenzyme Q10 (T+R)
Experimental: as §1, §2, §3

[4] = test system: HUVEC cells; test: Endothelial morphology of HUVEC cultures; type: cell-based, Human; settings: 24 hours
Experimental: Effect of CoQ10 on endothelial morphology: Human umbilical vein endothelial cells (HUVEC cells) were treated for 24 hours with a range of concentrations of CoQ10. Drug was applied to confluent cells that closely resemble ‘normal’ cells and also to sub-confluent cells that more closely represent the angiogenic phenotype of proliferating cells. […] The response of sub-confluent endothelial cells to CoQ10 diverged from the confluent cell response (FIG. 52B).

[5] = test system: HUVEC cells; test: HUVEC apoptosis (annexin V/propidium iodide positive cells, flow cytometry); type: cell-based, Human; settings: for propidium iodide positive apoptotic cells: 24 hours
Experimental: (§4) Methods: Human umbilical vein endothelial cell (HUVEC) fate decisions that modulate the angiogenic phenotype were examined in the presence of 100 or 1500 μM CoQ10 or excipient and compared to untreated control cells. Endothelial cell fate assays for apoptosis, proliferation, migration and 3-D tube formation within MATRIGEL® were performed.
(§5) To assess the potential effects of CoQ10 on endothelial migration, HUVEC migration was examined 5 hours post-cell clearance, in an endothelial scratch assay. […] In order to determine if the CoQ10 anti-tumor activity is due to effects on endothelial sprouting angiogenesis, we examined endothelial tube formation in 3-D MATRIGEL® cultures over time. Addition of excipient in both the gel and overlying media impaired tube formation compared to control.
CoQ10 has divergent effects on endothelial cell survival: Confluent and sub-confluent cultures of HUVEC cells were treated for 24 hours with 100 or 1500 μM CoQ10 and assayed for propidium iodide positive apoptotic cells. The results are shown in FIGS. 53A and 53B, respectively.

[6] = test system: HUVEC cells; test: HUVEC migration, endothelial scratch assay; type: cell-based, Human; settings: for closure of the cleared area (scratch assay): confluent HUVEC
Experimental: as §4, §5
CoQ10 decreases endothelial cell migration: HUVEC cells were grown to confluence tested for migration using the ‘scratch’ assay. 100 or 1500 μM CoQ10 was applied at the time of scratching and closure of the cleared area was monitored over 48 hours.

[7] = test system: HUVEC cells; test: Endothelial tube formation in 3-D MATRIGEL; type: cell-based, Human; settings: for endothelial tube formation: 3-D matrigel
Experimental: as §4, §5
CoQ10 impairs endothelial tube formation: Endothelial cells growing in 3-D matrigel form tubes over time. Differential effects of 100 μM and 1500 μM CoQ10 on tube formation were observed. […] Images shown in FIG. 56 were taken at 72 hours.

[8] = test system: HUVEC cells; test: Nitric oxide (NO) generation in HUVEC under normoxia and hypoxia; type: cell-based, Human; settings: subconfluent and confluent HUVEC, normoxic or hypoxic, 0, 100 or 1500 μM CoQ10
Experimental: The response of HUVEC cells to normoxia and hypoxia in the presence of absence of CoQ10 was assessed. Specifically, HUVEC cells were grown in subconfluent and confluent cultures under normoxic or hypoxic conditions as described herein. The cells were also exposed to 0, 100, or 1500 μM CoQ10. Nitric oxide (NO) and reactive oxygen species (ROS) levels were determined using methods provided herein.

[9] = test system: HUVEC cells; test: HUVEC bioenergetics (Seahorse assays); type: cell-based, Human; settings: sub-confluent HUVEC cultures, CoQ10 10, 100, 1500 μM
Experimental: The bioenergetics of HUVEC cells were assessed in the presence of various concentrations of CoQ10. Specifically, HUVEC cells were grown in subconfluent or confluent conditions in the absence or presence of CoQ10 (10, 100, 1500 μM). Oxygen consumption rates (OCR), both total and mitochondrial, ATP production, and Extra Cellular Acidification Rate (ECAR) were assessed using Seahorse assays.

[10] = test system: Bcl2; settings: melanoma cell, in the presence of VEGF; cited from earlier work
[11] = concentration not stated (summary)

COC1=C(OC)C(=O)C(C/C=C(\C)CC/C=C(\C)CC/C=C(\C)CC/C=C(\C)CC/C=C(\C)CC/C=C(\C)CC/C=C(\C)CC/C=C(\C)CC/C=C(\C)CCC=C(C)C)=C(C)C1=O [CoQ10, Coenzyme Q10]
LDHA expression levels [1]: decreased | protein expression level of GPAT1 [2]: normalized | protein expression level of TAZ [3]: normalized | endothelial morphology ([4]; confluent cultures, 5000 μM): subtle increase in rounded cells | endothelial morphology ([4]; confluent cultures, increasing concentrations of CoQ10): closer association, elongation and alignment of ECs | endothelial morphology ([4]; sub-confluent cultures, 1000 μM CoQ10 and above): visibly unhealthy | visible cell death ([4]; sub-confluent cultures, increasing concentrations of CoQ10): Increased cell death | HUVEC apoptosis (annexin V/propidium iodide positive cells) ([5]; 1500 μM CoQ10, compared to excipient or control cells): increase | apoptosis / cell death of sub-confluent (angiogenic/proliferating) endothelial cells [5, 11]: increases apoptosis; also recorded: selectively induces cell death | cell death of confluent (non-proliferating) endothelial cells ([5]; concentration not stated or low doses (summary), compared to controls): protective; also recorded: decreased compared to controls | propidium iodide positive apoptotic cells ([5]; confluent HUVEC, 100 or 1500 μM CoQ10): protective | propidium iodide positive apoptotic cells ([5]; sub-confluent HUVEC, 1500 μM CoQ10): increased apoptosis | HUVEC migration ([6]; 5 hours post-cell clearance, 100 and 1500 μM, excipient also impaired migration): significantly impaired | endothelial migration in scratch assays [6, 11]: potent inhibition of endothelial migration; also recorded: impairs endothelial migration | closure of the cleared area (scratch assay) ([6]; 100 μM CoQ10, monitored over 48 hours, compared to control): delayed endothelial closure | closure of the cleared area (scratch assay) ([6]; 1500 μM CoQ10, up to 48 hours): prevented closure | HUVEC tube formation ([7]; 1500 μM CoQ10, compared to both excipient and control untreated cells, 24 hours up to 96 hours): further impaired | endothelial tube formation ([7]; 100 μM CoQ10): modest effect | endothelial tube formation ([7]; 1500 μM CoQ10, images at 72 hours): Impaired cell to cell association and breakdown of early tube structure was significant; also recorded: dramatic disruption of endothelial tube formation | tube formation in 3-D MATRIGEL tube formation assays [7, 11]: impairs | generation of nitric oxide (NO) [8]: differential dose dependent generation | mitochondrial OCR [9]: reverts mitochondrial OCR to confluent level OCR | level of Bcl2 [10]: decreased

Source: patent US12437835B2, “Interrogatory cell-based assays and uses thereof” (Berg LLC, priority 2012, dated 2025)
